Laboratory results taken from US4195101A, “2',6'-Dihydroxy-9-(2,5-dihydroxyphenyl)octylphenone and its use as an anti-oxidant” (The Lion Dentifrice Co. Ltd., priority 1977, dated 1980).

Experiments:
[1] = Solubility rating of 10 mg of the crystal in various solvents (Table I); format: physicochemical; details: for Rating of Solubility: 10 mg of crystal
Experimental: This compound is obtained as needle-like or plate-like crystals white to pale-yellow in appearance, tasteless, odorless and non-irritative, and has a melting point of 123.5° to 124° C. The compound is soluble in various solvents as shown in Table I. In Table I, the solubility of the compound was rated by A, B, C and D and each rating was determined for 10 mg of the crystal as follows.
A: Soluble in less than 0.1 ml of solvent.
B: Soluble in 0.1-1.0 ml of solvent.
C: Soluble in 1.0-10.0 ml of solvent.
[…]: Soluble in more than 10.0 ml of solvent.

[2] = Test I: peroxide value of refined lard by the active oxygen method (AOM); details: for Peroxide value: 97.5° C.
Experimental: (§1) The above-obtained compound was tested for its anti-oxidative effects in terms of peroxide value by the active oxygen method (AOM) and also in terms of oxygen absorption. […] Each of the tests I and II are described below together with the results thereof.
Varied amounts of the compound were admixed with and uniformly dissolved in portions of refined lard each weighing 20 g to prepare test samples. Each test sample was kept in an oil bath of thermostat at 97.5°±0.5° C., while air was forcedly blown into the lard at a rate of […].
The thus treated samples of the lard were analyzed for the peroxide value (POV for brevity) periodically or at certain intervals, in accordance with the modified Lea's method as described in "Yukagaku" (Journal of Japan Oil Chemist Society), vol. 19(15), p. 340, 1970.
In comparison, similar experiments were undertaken for the samples of the same lard with addition of BHA instead of the compound of the present invention or without addition of any anti-oxidant.

[3] = Test II: oxygen absorption in corn salad oil, Warburg's manometer; details: 0.02% by weight in corn salad oil, 60° C.
Experimental: as §1
The compound of the present invention was determined for the rate of oxygen absorption in a corn salad oil to which 0.02% by weight of the compound had been added. For the purpose, 2 grams of the corn salad oil sample was taken in the receptacle of Warburg's manometer with thermostat at 60°±0.1° C., which was shaken with 110 vibrations per minute in a vibration amplitude of 60 mm. The rate of oxygen absorption was determined by reading the manometer according to the procedure set forth in "Jikken Kagaku Koza" (Lectures in Experimental Chemistry), vol. 24, p. 85, 1958, Maruzen Publishing, Japan. In this testing, the receptacle was totally wrapped with an aluminum foil to prevent the photooxidation of the oil, and mercury was used as the manometer fluid in place of Brodie's solution in order to minimize any possible influence caused by fluctuations in the atmospheric pressure.
Further, in comparison, a similar test was conducted using the same corn salad oil with addition of 0.02% by weight of BHA or without addition of any anti-oxidant.

[4] = Anti-oxidative activity, general statements
[5] = Irritation (statement on properties of the compound)
[6] = LD50, oral administration, mouse; details: in vivo, po
mouse = assay: LD50, oral administration, mouse

O=C(CCCCCCCCc1cc(O)ccc1O)c1c(O)cccc1O [Inventive compound, 2',6'-dihydroxy-9-(2,5-dihydroxyphenyl)octylphenone]
Rating of Solubility ([1]; 1,2-Dichloroethane, at 25° C.): C (Soluble in 1.0-10.0 ml of solvent)
Rating of Solubility ([1]; 1,2-Dichloroethane, at the boiling point of solvent): A (Soluble in less than 0.1 ml of solvent)
Rating of Solubility ([1]; Acetone, at 25° C.): A (Soluble in less than 0.1 ml of solvent)
Rating of Solubility ([1]; Acetone, at the boiling point of solvent): A (Soluble in less than 0.1 ml of solvent)
Rating of Solubility ([1]; Acetonitrile, at 25° C.): A (Soluble in less than 0.1 ml of solvent)
Rating of Solubility ([1]; Acetonitrile, at the boiling point of solvent): A (Soluble in less than 0.1 ml of solvent)
Rating of Solubility ([1]; Benzene, at the boiling point of solvent): B (Soluble in 0.1-1.0 ml of solvent)
Rating of Solubility ([1]; Carbon tetrachloride, at the boiling point of solvent): C (Soluble in 1.0-10.0 ml of solvent)
Rating of Solubility ([1]; Chloroform, at 25° C.): C (Soluble in 1.0-10.0 ml of solvent)
Rating of Solubility ([1]; Chloroform, at the boiling point of solvent): C (Soluble in 1.0-10.0 ml of solvent)
Rating of Solubility ([1]; Dichloromethane, at the boiling point of solvent): C (Soluble in 1.0-10.0 ml of solvent)
Rating of Solubility ([1]; Diethylether, at 25° C.): A (Soluble in less than 0.1 ml of solvent)
Rating of Solubility ([1]; Diethylether, at the boiling point of solvent): A (Soluble in less than 0.1 ml of solvent)
Rating of Solubility ([1]; Ethyl acetate, at 25° C.): A (Soluble in less than 0.1 ml of solvent)
Rating of Solubility ([1]; Ethyl acetate, at the boiling point of solvent): A (Soluble in less than 0.1 ml of solvent)
Rating of Solubility ([1]; Ethyl alcohol, at 25° C.): A (Soluble in less than 0.1 ml of solvent)
Rating of Solubility ([1]; Ethyl alcohol, at the boiling point of solvent): A (Soluble in less than 0.1 ml of solvent)
Rating of Solubility ([1]; Methyl alcohol, at 25° C.): A (Soluble in less than 0.1 ml of solvent)
Rating of Solubility ([1]; Methyl alcohol, at the boiling point of solvent): A (Soluble in less than 0.1 ml of solvent)
Rating of Solubility ([1]; Pyridine, at 25° C.): A (Soluble in less than 0.1 ml of solvent)
Rating of Solubility ([1]; Pyridine, at the boiling point of solvent): A (Soluble in less than 0.1 ml of solvent)
Rating of Solubility ([1]; Toluene, at the boiling point of solvent): B (Soluble in 0.1-1.0 ml of solvent)
solubility in ethyl acetate and ethyl alcohol ([1]; ethyl acetate and ethyl alcohol, in words): readily soluble
Rating of Solubility ([1]; iso-Propyl alcohol, at 25° C.): A (Soluble in less than 0.1 ml of solvent)
Rating of Solubility ([1]; iso-Propyl alcohol, at the boiling point of solvent): A (Soluble in less than 0.1 ml of solvent)
solubility in ligroin and chloroform ([1]; ligroin and chloroform, in words): insoluble or hardly soluble
Rating of Solubility ([1]; n-Butyl alcohol, at 25° C.): A (Soluble in less than 0.1 ml of solvent)
Rating of Solubility ([1]; n-Butyl alcohol, at the boiling point of solvent): A (Soluble in less than 0.1 ml of solvent)
Rating of Solubility ([1]; n-Propyl alcohol, at 25° C.): A (Soluble in less than 0.1 ml of solvent)
Rating of Solubility ([1]; n-Propyl alcohol, at the boiling point of solvent): A (Soluble in less than 0.1 ml of solvent)
solubility in 1,2-dichloroethane, toluene or benzene ([1]; room temperature, in words): insoluble or hardly soluble
Peroxide value ([2]; 0.001 (% by weight) in lard, 8 hours): 2.4 meq./kg
Peroxide value ([2]; 0.001 (% by weight) in lard, 16 hours): 5.3 meq./kg
Peroxide value ([2]; 0.001 (% by weight) in lard, 24 hours): 8.2 meq./kg
Peroxide value ([2]; 0.001 (% by weight) in lard, 32 hours): 14.9 meq./kg
Peroxide value ([2]; 0.001 (% by weight) in lard, 40 hours): 419.9 meq./kg
Peroxide value ([2]; 0.005% by weight in lard, 8 hours): 1.8 meq./kg
Peroxide value ([2]; 0.005% by weight in lard, 16 hours): 5.0 meq./kg
Peroxide value ([2]; 0.005% by weight in lard, 24 hours): 5.9 meq./kg
Peroxide value ([2]; 0.005% by weight in lard, 32 hours): 6.3 meq./kg
Peroxide value ([2]; 0.005% by weight in lard, 48 hours): 12.0 meq./kg
Peroxide value ([2]; 0.005% by weight in lard, 56 hours): 18.2 meq./kg
Peroxide value ([2]; 0.005% by weight in lard, 64 hours): 560.9 meq./kg
prevention of oxidative denaturation of lard, compared with 0.02% by weight of BHA ([2]; 0.005% by weight of the compound in lard): to the same extent as done by adding 0.02% by weight of BHA
Peroxide value ([2]; 0.01% by weight in lard, 8 hours): 1.5 meq./kg
Peroxide value ([2]; 0.01% by weight in lard, 16 hours): 3.2 meq./kg
Peroxide value ([2]; 0.01% by weight in lard, 24 hours): 4.8 meq./kg
Peroxide value ([2]; 0.01% by weight in lard, 32 hours): 5.4 meq./kg
Peroxide value ([2]; 0.01% by weight in lard, 40 hours): 7.7 meq./kg
Peroxide value ([2]; 0.01% by weight in lard, 48 hours): 9.3 meq./kg
Peroxide value ([2]; 0.01% by weight in lard, 56 hours): 11.3 meq./kg
Peroxide value ([2]; 0.01% by weight in lard, 64 hours): 15.4 meq./kg
Peroxide value ([2]; 0.01% by weight in lard, 72 hours): 22.1 meq./kg
Peroxide value ([2]; 0.01% by weight in lard, 80 hours): 170.9 meq./kg
anti-oxidative effect compared with the same amount of BHA ([2]; 0.02% by weight): approximately twice as high as the same amount of BHA
Peroxide value ([2]; 0.02% by weight in lard, 8 hours): 1.8 meq./kg
Peroxide value ([2]; 0.02% by weight in lard, 16 hours): 2.9 meq./kg
Peroxide value ([2]; 0.02% by weight in lard, 24 hours): 3.8 meq./kg
Peroxide value ([2]; 0.02% by weight in lard, 32 hours): 4.5 meq./kg
Peroxide value ([2]; 0.02% by weight in lard, 40 hours): 6.0 meq./kg
Peroxide value ([2]; 0.02% by weight in lard, 48 hours): 7.2 meq./kg
Peroxide value ([2]; 0.02% by weight in lard, 56 hours): 8.2 meq./kg
Peroxide value ([2]; 0.02% by weight in lard, 64 hours): 10.6 meq./kg
Peroxide value ([2]; 0.02% by weight in lard, 72 hours): 13.2 meq./kg
Peroxide value ([2]; 0.02% by weight in lard, 80 hours): 14.5 meq./kg
Peroxide value ([2]; 0.02% by weight in lard, 96 hours): 21.5 meq./kg
Peroxide value ([2]; 0.02% by weight in lard, 112 hours): 59.3 meq./kg
Peroxide value ([2]; 0.02% by weight in lard, 120 hours): 390.7 meq./kg
Peroxide value ([2]; 0.1% by weight in lard, 8 hours): 2.1 meq./kg
Peroxide value ([2]; 0.1% by weight in lard, 16 hours): 3.0 meq./kg
Peroxide value ([2]; 0.1% by weight in lard, 24 hours): 4.1 meq./kg
Peroxide value ([2]; 0.1% by weight in lard, 32 hours): 5.2 meq./kg
Peroxide value ([2]; 0.1% by weight in lard, 40 hours): 7.9 meq./kg
Peroxide value ([2]; 0.1% by weight in lard, 48 hours): 8.7 meq./kg
Peroxide value ([2]; 0.1% by weight in lard, 56 hours): 9.9 meq./kg
Peroxide value ([2]; 0.1% by weight in lard, 64 hours): 11.8 meq./kg
Peroxide value ([2]; 0.1% by weight in lard, 72 hours): 13.5 meq./kg
Peroxide value ([2]; 0.1% by weight in lard, 80 hours): 16.0 meq./kg
Peroxide value ([2]; 0.1% by weight in lard, 96 hours): 18.5 meq./kg
Peroxide value ([2]; 0.1% by weight in lard, 112 hours): 24.0 meq./kg
Peroxide value ([2]; 0.1% by weight in lard, 120 hours): 24.1 meq./kg
Peroxide value ([2]; 0.1% by weight in lard, 144 hours): 29.9 meq./kg
Peroxide value ([2]; 0.1% by weight in lard, 168 hours): 32.1 meq./kg
Peroxide value ([2]; 0.1% by weight in lard, 192 hours): 38.1 meq./kg
Peroxide value ([2]; 0.1% by weight in lard, 200 hours): 45.0 meq./kg
Peroxide value ([2]; 0.1% by weight in lard, 264 hours): 678.2 meq./kg
Oxygen absorption ([3]; 85 hours): 84.4 μ1/g
Oxygen absorption ([3]; 140 hours): 138.7 μ1/g
Oxygen absorption ([3]; 166 hours): 159.8 μ1/g
Oxygen absorption ([3]; 199 hours): 174.8 μ1/g
Oxygen absorption ([3]; 263 hours): 238.0 μ1/g
Oxygen absorption ([3]; 288 hours): 280.4 μ1/g
Oxygen absorption ([3]; 320 hours): 334.6 μ1/g
Oxygen absorption ([3]; 343 hours): 375.3 μ1/g
anti-oxidative activities (summary of peroxide value and oxygen absorption tests) ([4]; AOM peroxide value and oxygen absorption): excellent anti-oxidative activities
anti-oxidative activities compared with the conventional anti-oxidant BHA ([4]; in foodstuffs, such as lard or the like): much higher anti-oxidative activities than the conventional anti-oxidant BHA
irritation [5]: non-irritative
LD50 [6]: > 2000 mg/kg
LD50 value compared with BHT (mouse): about the same as in BHT
